Laboratory results as given in patent US10544099B2, “Inhibitors of indoleamine 2,3-dioxygenase and methods of their use” (BRISTOL-MYERS SQUIBB COMPANY, priority 2016, dated 2020).
pIC50: −log10 of the molar value.

molecular target: T1, human IDO1 (Homo sapiens, UniProt P14902); assay: HEK Human IDO-1 cell-based IDO inhibition assay; conditions: human IDO1/HEK293 cells, 20 hours incubation, kynurenine absorbance at 490 nm; read-out: HEK Human IDO-1 Bio Activity
T1 construct: expressed in transfected cells
Description: HEK293 cells were transfected with a pCDNA-based mammalian expression vector harboring human IDO1 cDNA (NM 002164.2) by electroporation. They were cultured in medium (DMEM with 10% FBS) containing 1 mg/ml G418 for two weeks. Clones of HEK293 cells that stably expressed human IDO1 protein were selected and expanded for IDO inhibition assay.
The human IDO1/HEK293 cells were seeded at 10,000 cells per 50 μL per well with RPMI/phenol red free media contains 10% FBS in a 384-well black wall clear bottom tissue culture plate (Matrix Technologies LLC) 100 nL of certain concentration of compound was then added to each well using ECHO liquid handling systems. The cells were incubated for 20 hours in 37° C. incubator with 5% CO2.
The compound treatments were stopped by adding trichloroacetic acid (Sigma-Aldrich) to a final concentration at 0.2%. The cell plate was further incubated at 50° C. for 30 minute. The equal volume supernatant (20 μL) and 0.2% (w/v) Ehrlich reagent (4-dimethylaminobenzaldehyde, Sigma-Aldrich) in glacial acetic acid were mixed in a new clear bottom 384-well plate. This plate was then incubated at room temperature for 30 minute. The absorbance at 490 nm was measured on Envision plate reader.
Compound IC50 values were calculated using the counts of 500 nM of a reference standard treatment as one hundred percent inhibition, and counts of no compound but DMSO treatment as zero percent inhibition.

T1 sequence (P14902 whole entry): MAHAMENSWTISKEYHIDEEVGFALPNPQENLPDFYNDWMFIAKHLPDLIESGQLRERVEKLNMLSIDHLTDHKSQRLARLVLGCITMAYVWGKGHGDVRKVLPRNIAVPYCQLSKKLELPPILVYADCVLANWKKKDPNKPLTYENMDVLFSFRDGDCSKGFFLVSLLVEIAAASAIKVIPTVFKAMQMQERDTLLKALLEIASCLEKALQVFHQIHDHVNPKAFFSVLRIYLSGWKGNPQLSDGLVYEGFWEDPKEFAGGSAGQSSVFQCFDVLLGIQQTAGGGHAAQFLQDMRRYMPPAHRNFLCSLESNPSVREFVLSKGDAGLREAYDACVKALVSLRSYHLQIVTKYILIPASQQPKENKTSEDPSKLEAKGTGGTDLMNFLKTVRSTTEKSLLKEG

SMILES | pIC50
CC(NC(=O)Nc1ccc(Cl)cc1)C1CCN(c2ccnc3ccc(F)cc23)CC1 (racemic) [Example 1, (±)-1-(4-Chlorophenyl)-3-(1-(1-(6-fluoroquinolin-4-yl)piperidin-4-yl)ethyl)urea] | > 5.70
O=C(Nc1ccc(Cl)cc1)NC1CC12CCC(c1ccnc3ccc(F)cc13)CC2 (racemic) [Example 2, (±)-1-(4-chlorophenyl)-3-(6-(6-fluoroquinolin-4-yl)spiro [2.5]octan-1-yl)urea] | > 5.70
CC[C@@H](NC(=O)Nc1ccc(Cl)cc1)[C@H]1CC[C@H](Oc2ccnc3ccccc23)CC1 (racemic) [Example 3, (±)-1-(4-chlorophenyl)-3-((R)-1-((trans)-4-(quinolin-4-yloxy)cyclohexyl)propyl)urea] | > 7.30
Cc1ccc(NC(=O)N[C@H](C)[C@H]2CC[C@@H](c3ccnc4ccc(F)cc43)CC2)cc1 [Example 4, 1-((R)-1-((1s,4s)-4-(6-Fluoroquinolin-4-yl)cyclohexyl)ethyl)-3-p-tolylurea] | > 7.30
C[C@@H](NC(=O)Nc1ccc(Cl)cc1)[C@H]1CC[C@@H](c2ccnc3ccc(F)cc32)CC1 [Example 5, 1-(4-chlorophenyl)-3-((R)-1-((1s,4S)-4-(6-fluoroquinolin-4-yl)cyclohexyl)ethyl)urea] | > 7.30
CCOc1ccc(NC(=O)N[C@H](C)[C@H]2CC[C@@H](c3ccnc4ccc(F)cc43)CC2)cc1 [Example 6, 1-(4-ethoxyphenyl)-3-((R)-1-((1s,4S)-4-(6-fluoroquinolin-4-yl)cyclohexyl)ethyl)urea] | > 7.30
Cc1ccc(NC(=O)N[C@H](C)[C@H]2CC[C@@H](c3ccnc4ccc(F)cc43)CC2)cc1Cl [Example 7, 1-(3-chloro-4-methylphenyl)-3-((R)-1-((1s,4S)-4-(6-fluoroquinolin-4-yl)cyclohexyl)ethyl)urea] | > 7.30
C[C@@H](NC(=O)Nc1ccc(F)cc1)[C@H]1CC[C@@H](c2ccnc3ccc(F)cc32)CC1 [Example 8, 1-(4-fluorophenyl)-3-((R)-1-((1s,4S)-4-(6-fluoroquinolin-4-yl)cyclohexyl)ethyl)urea] | > 7.30
Cc1ccc(OC(=O)N[C@H](C)[C@H]2CC[C@@H](c3ccnc4ccc(F)cc43)CC2)cc1 [Example 9] | > 6.60
C[C@@H](NC(=O)Oc1ccc(F)cc1)[C@H]1CC[C@@H](c2ccnc3ccc(F)cc32)CC1 [Example 10, 4-fluorophenyl (R)-1-((1s,4S)-4-(6-fluoroquinolin-4-yl)cyclohexyl)ethylcarbamate] | > 6.60
COc1ccc(OC(=O)N[C@H](C)[C@H]2CC[C@@H](c3ccnc4ccc(F)cc43)CC2)cc1 [Example 11, 4-methoxyphenyl (R)-1-((1s,4S)-4-(6-fluoroquinolin-4-yl)cyclohexyl)ethylcarbamate] | > 7.30
